In patent EP1595878A1, “INDOLE DERIVATIVES WITH APOPTOSIS INDUCING ACTIVITY” (Zentaris GmbH, priority 2004, dated 2005):
≈ marks a conversion by molar mass, not a printed value. Like-named read-outs stand apart in the source and are kept apart here.

What was measured:
Rindertubulin = assay: Inhibition of tubulin polymerisation in vitro; assay type: biochemical, Rind; details: for EC50: cells print µM, head µg/ml, read-out: Hemmung der Tubulin-Polymerisation, EC50; for Hemmwirkung auf die Polymerisation von Tubulin: verbal summary of Table 3
Text: Die Substanzen 1, 4, 9, 11, 12, 13 und 15 wurden in einem in-vitro Test auf Hemmung der Polymerisation von Rindertubulin getestet (D.M. Bollag et al. Cancer Res. 1995, 55, 2325-2333). In diesem Test wird durch Zyklen von Polymerisation und Depolymerisation aufgereinigtes Tubulin eingesetzt, welches durch Zugabe von GTP und Erwärmung zur Polymerisation gebracht wird. In Tabelle 3 sind die EC50 Werte der Polymerisationshemmung von Tubulin mit 30% assoziierten Proteinen (MAPs) angegeben.

[1] = tested on: humane Glioblastom Zelllinie SF-268 (NCI 503138); assay: XTT proliferation assay (cytotoxicity test), SF-268; assay type: cell-based; details: Homo sapiens, read-out: XTT Proliferationsassay, EC50
Text: (§1) Die Substanzen 1, 2, 4, 9, 11, 12 , 13 und 15 wurden in einem Proliferationstest an etablierten Tumorzelllinien auf ihre anti-proliferative Aktivität hin untersucht (D.A. Scuderio et al. Cancer Res. 1988, 48, 4827-4833). Der verwendete Test bestimmt die zelluläre Dehydrogenase-Aktivität und ermöglicht eine Bestimmung der Zellvitalität und indirekt der Zellzahl. Bei den verwendeten Zelllinien handelt es sich um die humane Cervixkarzinom Zelllinie KB/HeLa (ATCC CCL17), die ovariale Adenokarzinomzelllinie SKOV-3 (ATCC HTB77), die humane Glioblastom Zelllinie SF-268 (NCI 503138) und die Lungenkarzinom Zelllinie NCI-H460 (NCI 503473).

[2] = tested on: humane Cervixkarzinom Zelllinie KB/HeLa (ATCC CCL17); assay: XTT proliferation assay (cytotoxicity test), KB/HeLa; assay type: cell-based; details: Homo sapiens, read-out: XTT Proliferationsassay, EC50
Text: as §1

[3] = tested on: Lungenkarzinom Zelllinie NCI-H460 (NCI 503473); assay: XTT proliferation assay (cytotoxicity test), NCI-H460; assay type: cell-based; details: Homo sapiens, NCl-H460, read-out: XTT Proliferationsassay, EC50
Text: as §1

[4] = tested on: ovariale Adenokarzinomzelllinie SKOV-3 (ATCC HTB77); assay: XTT proliferation assay (cytotoxicity test), SKOV-3; assay type: cell-based; details: Homo sapiens, SK-OV-3; SKOV3; read-out: XTT Proliferationsassay, EC50
Text: as §1

KB/HeLa Zellen = assay: Cell cycle analysis (G2/M arrest); assay type: cell-based; details: Homo sapiens, read-out: EC50 in nM (50% cells in G2/M)
Text: Der Zellzyklus umfasst die Entwicklung der Zelle von einer Zellgeneration zur nächsten.
Während der Ruhephase (G0) und präsynthetischen Phase (G1) besitzt die Zelle einen diploiden Chromosomensatz (2c). In der Synthesephase (S) wird die DNA-Menge durch Replikation vermehrt. Die S-Phase endet mit Erreichen der prämitotischen Phase (G2M), in der die Zelle einen reduplizierten Chromosomenbestand (4c) und verdoppelten DNA-Gehalt aufweist. In der nachfolgenden, kurzdauernden Mitosephase (M) kommt es zur gleichmäßigen Aufteilung der reduplizierten Chromosomen auf zwei Tochterzellen, die dann jeweils wieder einen diploiden DNA Gehalt zeigen und sich in der G01-Phase befinden, so daß der Zellzyklus neu beginnen kann.
Für die Zellzyklusanalyse wurden KB/HeLa Zellen mit den Testsubstanzen in unterschiedlichen Konzentrationen (0.1-1000 nM) 24 Stunden bei 37°C behandelt.
Der prozentuale Anteil der in der G2/M Phase des Zellzyklus arrettierten Zellen nach Behandlung mit Referenz- oder ausgewählten Testsubstanzen ist in der nachfolgenden Tabelle 4 dargestellt. Die Ergebnisse wurden mit einer speziellen Analysesoftware (ModFit™) ausgewertet.

Melanom, MEXF462 = assay type: in vivo, Mäuse; details: for Todesfällen: dead animals / total
Text: Die in vivo Aktivität und Verträglichkeit der erfindungsgemäßen Verbindung 2 wurde im Vergleich zu den Substanzen 10 und 14 in einem humanen Xenograft-Modell (Melanom, MEXF462) überprüft. Die Ergebnisse sind in der nachfolgenden Tabelle 6 zusammengefasst: in vivo Aktivitäten von Verbindung 2, 10 and 14 (Melanom; MEXF462) Tabelle 6: […]

Mamma, MAXF857 = assay type: in vivo, Mäuse; details: 40 mg/kg p.o.; for Todesfällen: dead animals / total
Text: Die in vivo Aktivität und Verträglichkeit der erfindungsgemäßen Verbindung 2 wurde im Vergleich zu der Substanz 10 in einem weiteren humanen Xenograft-Modell (Mamma, MAXF857) überprüft. Die Ergebnisse werden in der nächsten Tabelle gezeigt: Effect of 2 and 10 on the Mammary Cancer MAXF857 Tabelle 7: […]

[5] = tested on: Doxorubicin-resistente P388; assay: XTT proliferation assay, doxorubicin-resistant P388; assay type: cell-based, murine; details: Mus musculus, P388; P388ADR; read-out: XTT Proliferationsassay, EC50
Text: as §1, with “503473). Tabelle 1:” for “503473).”
(§2) Zur weiteren Charakterisierung wurden die Substanzen 1, 2, 4 und 11 gegenüber multi drug resistenten Zelllinien im Vergleich zu den nicht-resistenten Wildtypzelllinien untersucht.
(§3) Bei den untersuchten Zelllinien handelt es sich um die murine L1210, die akute myeloische Leukaemie Zelllinie LT12 und um die resistenten Linien L1210/mdr und LT12/mdr. Außerdem wurden die murine P388 Zelllinie (methyl-cholanthreneinduced lymphoid neoplasm) sowie die Doxorubicin-resistente P388 als Testsysteme herangezogen.

L1210VCR = assay: XTT proliferation assay, resistant L1210; assay type: cell-based, murine; details: Mus musculus, L1210; L1210VCR; read-out: XTT Proliferationsassay, EC50
Text: as §1, with “503473). Tabelle 1:” for “503473).”
as §2, §3

LT12/mdr = assay: XTT proliferation assay, resistant LT12/mdr; assay type: cell-based; details: Rattus norvegicus, LT12; LT12mdr; read-out: XTT Proliferationsassay, EC50
Text: as §1, with “503473). Tabelle 1:” for “503473).”
as §2, §3

[6] = target: humaner DNA-Topoisomerase II (Homo sapiens, UniProt P11388); assay: kDNA decatenation assay for topoisomerase II activity; assay type: biochemical; details: compound 1 at 100, 31.6 and 10 µM; reference compounds at 100 µM
Description: In diesem von P. Arimondo (Anti-Cancer Drug Design 2000, 15 (6), 413-421) beschriebenen Assay wird kDNA mit humaner DNA-Topoisomerase II in Abwesenheit oder Gegenwart der Testverbindungen behandelt. Die Testung der erfindungsgemäßen Verbindung 1 erfolgte hierbei bei drei unterschiedlichen Konzentrationen (100, 31.6 und 10 µM). Zum Vergleich setzte man eine Positivkontrolle und die Referenzverbindungen m-Amsacrin (m-Amsa), Paclitaxel (Taxol) und Vincristine bei einer jeweiligen Konzentration von 100µM ein.
Zu 1µL vorgelegter Testsubstanz (20fach konzentriert in 100% DMSO) werden 2µL 10x Assay Puffer, 1µL kDNA (200ng), 0,5µL human Topoisomerase II (1unit) und 15,5µL H2O pipettiert und gemischt.
Die Reaktionsansätze werden in den auf 37°C vorgeheizten Heizblock gestellt und 10min bei 37°C inkubiert. Die Inkubation wird nach Zugabe von 4µL 5x Stop Puffer gestoppt und nachfolgend die Substanz mit CIA extrahiert. Danach werden 20µL des Überstandes auf ein 1 % Agarosegel mit 0,25µg/mL Ethidiumbromid aufgetragen und 1 h bei 100V aufgetrennt. Zum Schluss wird das Gel unter UV-Anregung fotografiert (s. Figur 1). Die Quantifizierung der Inhibierung der Decatenation von kDNA erfolgt mit der GelPro®Analyzer Software (s. Figur 2)

human Topoisomerase II = human Topoisomerase II (Homo sapiens, UniProt P11388); assay: pRYG relaxation assay for topoisomerase II activity; assay type: biochemical; details: compound 1 at 100, 31.6 and 10 µM; reference compounds at 316 and 100 µM
Description: Mit diesem Relaxationsassay konnte zusätzlich die inhibitorische Eigenschaft der erfindungsgemäßen Verbindungen auf Topoisomerase II gezeigt werden. Die Testung der erfindungsgemäßen Verbindung 1 erfolgte hierbei bei drei unterschiedlichen Konzentrationen (100, 31.6 und 10 µM). Zum Vergleich setzte man die Referenzverbindungen m-Amsacrin, Paclitaxel (Taxol) und Vincristine bei Konzentrationen von 316 und 100µM ein.
Zu 1µL vorgelegter Testsubstanz (20fach konzentriert in 100% DMSO) werden 2µL 10x Assay Puffer, 0,5µL pRYG DNA (125ng), 0,5µL human Topoisomerase II (1 unit) und 16µL H2O pipettiert und gemischt. Die Reaktionsansätze werden in den auf 37°C vorgeheizten Heizblock gestellt und 30min bei 37°C inkubiert. Die Inkubation wird nach Zugabe von 4µL 5x Stop Puffer abgestoppt. Danach werden 10µL des Ansatzes auf ein 1,2% Agarosegel mit 0,25µg/mL Ethidiumbromid aufgetragen und 2,5h bei 100V aufgetrennt. Zum Schluß wird das Gel unter UV Anregung fotografiert (s. Figur 3). Die Quantifizierung der Inhibierung der pRYG Relaxation erfolgt mit der GelPro®Analyzer Software (s. Figur 4).

[7] = tubulin with 30% associated proteins (MAPs)

Sequence of human Topoisomerase II (P11388 whole entry): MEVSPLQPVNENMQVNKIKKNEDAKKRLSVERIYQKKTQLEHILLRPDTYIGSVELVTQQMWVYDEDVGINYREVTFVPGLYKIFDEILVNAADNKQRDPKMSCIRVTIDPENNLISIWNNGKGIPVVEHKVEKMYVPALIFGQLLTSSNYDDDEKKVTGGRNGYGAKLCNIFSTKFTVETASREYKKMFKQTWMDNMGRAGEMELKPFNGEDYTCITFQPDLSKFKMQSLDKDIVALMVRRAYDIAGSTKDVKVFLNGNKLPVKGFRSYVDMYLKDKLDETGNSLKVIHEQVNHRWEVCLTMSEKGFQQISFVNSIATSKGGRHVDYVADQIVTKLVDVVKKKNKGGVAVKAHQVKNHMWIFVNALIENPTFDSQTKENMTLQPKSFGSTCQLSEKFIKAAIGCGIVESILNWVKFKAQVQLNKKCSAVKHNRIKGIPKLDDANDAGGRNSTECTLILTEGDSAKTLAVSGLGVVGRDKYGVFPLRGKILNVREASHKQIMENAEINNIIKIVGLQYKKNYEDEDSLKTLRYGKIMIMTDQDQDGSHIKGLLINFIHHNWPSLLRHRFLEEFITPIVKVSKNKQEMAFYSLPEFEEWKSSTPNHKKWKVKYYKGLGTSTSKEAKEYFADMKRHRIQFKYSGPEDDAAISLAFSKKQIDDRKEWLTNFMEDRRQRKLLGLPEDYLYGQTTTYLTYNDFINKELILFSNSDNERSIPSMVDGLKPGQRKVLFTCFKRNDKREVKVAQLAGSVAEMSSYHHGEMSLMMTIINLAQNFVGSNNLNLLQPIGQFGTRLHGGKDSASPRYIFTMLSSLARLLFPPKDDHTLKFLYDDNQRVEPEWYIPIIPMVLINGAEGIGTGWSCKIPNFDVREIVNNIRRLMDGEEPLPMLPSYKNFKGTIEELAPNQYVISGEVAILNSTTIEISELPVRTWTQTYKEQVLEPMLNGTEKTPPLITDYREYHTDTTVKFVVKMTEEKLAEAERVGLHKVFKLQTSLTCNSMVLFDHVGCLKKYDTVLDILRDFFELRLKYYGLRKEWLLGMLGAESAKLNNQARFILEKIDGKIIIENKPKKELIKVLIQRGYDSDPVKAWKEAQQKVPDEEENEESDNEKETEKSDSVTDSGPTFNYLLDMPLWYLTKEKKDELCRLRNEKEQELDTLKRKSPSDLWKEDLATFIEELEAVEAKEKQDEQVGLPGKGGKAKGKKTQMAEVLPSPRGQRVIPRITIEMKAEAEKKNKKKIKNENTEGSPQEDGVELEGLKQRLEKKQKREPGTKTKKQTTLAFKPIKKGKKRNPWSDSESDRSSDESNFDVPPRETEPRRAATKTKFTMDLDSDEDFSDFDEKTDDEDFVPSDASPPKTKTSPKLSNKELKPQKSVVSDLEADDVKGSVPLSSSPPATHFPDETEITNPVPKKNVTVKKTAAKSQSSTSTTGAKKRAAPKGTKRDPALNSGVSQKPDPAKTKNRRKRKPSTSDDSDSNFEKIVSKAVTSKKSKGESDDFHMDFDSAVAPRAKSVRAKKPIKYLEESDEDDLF
Sequence of humaner DNA-Topoisomerase II (P11388 whole entry): as above

O=C(Nc1cccc2cccnc12)C(=O)c1cn(Cc2ccc(Cl)cc2)c2ccccc12 [Verbindung 12, 2-[1-(4-Chlor-benzyl)-1H-indol-3-yl]-2-oxo-N-chinolin-8-yl-acetamid]
EC50 (Rindertubulin; [7]): > 10 µM
Hemmwirkung auf die Polymerisation von Tubulin (Rindertubulin): keinen Effekt
EC50 [1]: > 3.16 µg/mL
EC50 [2]: > 3.16 µg/mL
EC50 [3]: > 3.16 µg/mL
EC50 [4]: > 3.16 µg/mL

Cc1ccc2cccc(NC(=O)C(=O)c3cn(Cc4ccc(F)cc4)c4ccccc34)c2n1 [Verbindung 15, 2-[1-(4-Fluor-benzyl)-1H-indol-3-yl]-N-(2-methyl-chinolin-8-yl)-2-oxo-acetamid]
EC50 (Rindertubulin; [7]): > 10 µM
Hemmwirkung auf die Polymerisation von Tubulin (Rindertubulin): keinen Effekt
EC50 [1]: > 3.16 µg/mL
EC50 [2]: > 3.16 µg/mL

O=C(Nc1ccncc1)C(=O)c1cn(Cc2ccc(Cl)cc2)c2ccccc12 [Verbindung 14, 2-[1-(4-Chlor-benzyl)-1H-indol-3-yl]-2-oxo-N-pyridin-4-yl-acetamid]
EC50 (KB/HeLa Zellen; HeLa, 24 h): > 1000 nM
Optimale T/C % (Tag) (Melanom, MEXF462; 16 mg/kg p.o., day 18): 0.7% (18)
Todesfällen (Melanom, MEXF462; 16 mg/kg p.o.): 3/5 Mäuse tot
Optimale T/C % (Tag) (Melanom, MEXF462; 32 mg/kg p.o., day 7): 14.6% (7)
Todesfällen (Melanom, MEXF462; 32 mg/kg p.o.): 3/5 Mäuse tot

O=C(Nc1ccc2ncccc2c1)C(=O)c1cn(Cc2ccc(Cl)cc2)c2ccccc12 [Verbindung 10, 2-[1-(4-Chlor-benzyl)-1H-indol-3-yl]-2-oxo-N-chinolin-6-yl-acetamid]
Optimale T/C % (Tag) (Mamma, MAXF857; day 10): 6.5% (10)
Todesfällen (Mamma, MAXF857): 2/6
Todesfällen (Mamma, MAXF857; listed as 10 (V)): 2/6 Mäuse tot
Optimale T/C % (Tag) (Melanom, MEXF462; 55 mg/kg p.o., day 14): 0.8% (14)
Todesfällen (Melanom, MEXF462; 55 mg/kg p.o.): 2/6 Mäuse tot
Optimale T/C % (Tag) (Melanom, MEXF462; 70 mg/kg p.o., day 7): 2.3% (7)
Todesfällen (Melanom, MEXF462; 70 mg/kg p.o.): 5/6 Mäuse tot

O=C(Nc1ccc2[nH]ncc2c1)C(=O)c1cn(Cc2ccc(Cl)cc2)c2ccccc12 [Verbindung 4, 2-[1-(4-Chlor-benzyl)-1H-indol-3-yl]-N-(1H-indazol-5-yl)-2-oxo-acetamid]
EC50 [5]: 0.231 µg/mL (≈ 0.539 µM)
Hemmwirkung auf die Polymerisation von Tubulin (Rindertubulin): sehr potente Hemmwirkung
EC50 (L1210VCR): 0.241 µg/mL (≈ 0.562 µM)
EC50 (KB/HeLa Zellen; KB/HeLa cells, 0.1-1000 nM, 24 h at 37°C): 252 nM
EC50 (LT12/mdr): 0.093 µg/mL (≈ 0.217 µM)

O=C(Nc1ccc2ncccc2c1)C(=S)c1cn(Cc2ccc(Cl)cc2)c2ccccc12 [Verbindung 11, 2-[1-(4-Chlor-benzyl)-1H-indol-3-yl]-N-chinolin-6-yl-2-thioxo-acetamid]
Hemmung der Tubulin-Polymerisation, EC50 (Rindertubulin; tubulin with 30% associated proteins (MAPs), mean of two independent experiments): 0.97 µg/mL
Hemmwirkung auf die Polymerisation von Tubulin (Rindertubulin): sehr potente Hemmwirkung

Cc1ccc2cc(NC(=O)C(=O)c3cn(Cc4ccc(Cl)cc4)c4ccccc34)ccc2n1 [Verbindung 9, 2-[1-(4-Chlor-benzyl)-1H-indol-3-yl]-N-(2-methyl-chinolin-6-yl)-2-oxo-acetamid]
Hemmwirkung auf die Polymerisation von Tubulin (Rindertubulin): sehr potente Hemmwirkung

CC(=O)O[C@H]1C(=O)[C@@]2(C)[C@H]([C@H](OC(=O)c3ccccc3)[C@]3(O)C[C@H](OC(=O)[C@H](O)[C@@H](NC(=O)c4ccccc4)c4ccccc4)C(C)=C1C3(C)C)[C@]1(OC(C)=O)CO[C@@H]1C[C@@H]2O [Paclitaxel]
Hemmung der Topoisomerase II (Inhibierung der Decatenation von kDNA) [6]: keine inhibitorischen Effekte
Hemmung der Topoisomerase II (Inhibierung der pRYG Relaxation) (human Topoisomerase II): keine inhibitorischen Effekte

CC[C@]1(O)C[C@H]2CN(CCc3c([nH]c4ccccc34)[C@@](C(=O)OC)(c3cc4c(cc3OC)N(C=O)[C@H]3[C@@](O)(C(=O)OC)[C@H](OC(C)=O)[C@]5(CC)C=CCN6CC[C@]43[C@@H]65)C2)C1 [Vincristine]
Hemmung der Topoisomerase II (Inhibierung der Decatenation von kDNA) [6]: keine inhibitorischen Effekte
Hemmung der Topoisomerase II (Inhibierung der pRYG Relaxation) (human Topoisomerase II): keine inhibitorischen Effekte

O=C(Nc1cccc2cnccc12)C(=O)c1cn(Cc2ccc(Cl)cc2)c2ccccc12 [Verbindung 13, 2-[1-(4-Chlor-benzyl)-1H-indol-3-yl]-N-isochinolin-5-yl-2-oxo-acetamid]
EC50 (Rindertubulin; [7]): > 10 µM
Hemmwirkung auf die Polymerisation von Tubulin (Rindertubulin): keinen Effekt
EC50 [1]: > 3.16 µg/mL
EC50 [2]: > 3.16 µg/mL
EC50 [3]: > 3.16 µg/mL
EC50 [4]: > 3.16 µg/mL
